Reference: the supplement of paper PMC11061612

Key:
Test in all cases: Bliss excess, mean over the matrix (fraction); higher = more synergy
[1] = test system: ES-2 (Ovarian Carcinoma)
How it was run: (§1)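 Bliss excess equals the observed combination effect minus the expected value EA + EB − EA·EB, where EA and EB are the effects of each agent alone. Combination Emax is the second-highest inhibition within the matrix. Inhibition was scaled from CellTiter-Glo 2.0 luminescence, with 0 set by vehicle wells and 1 by blank wells, after 72 hours of two-drug dosing of cells plated in 1536-well plates.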

[2] = test system: LAMA-84 (Chronic Myelogenous Leukemia)
How it was run: as §1

[3] = test system: CML-T1 (Chronic Myelogenous Leukemia)
How it was run: as §1

[4] = test system: KYSE-70 (Esophageal Squamous Cell Carcinoma)
How it was run: as §1

[5] = test system: RL95-2 (Endometrial Carcinoma)
How it was run: as §1

[6] = test system: SW684 (Other Solid Carcinomas)
How it was run: as §1

[7] = test system: RERF-LC-KJ (Lung Adenocarcinoma)
How it was run: as §1

[8] = test system: LOUCY (T-Lymphoblastic Leukemia)
How it was run: as §1

[9] = test system: JHH-1 (Hepatocellular Carcinoma)
How it was run: as §1

[10] = test system: OVTOKO (Ovarian Carcinoma)
How it was run: as §1

[11] = test system: NCI-H810 (Non-Small Cell Lung Carcinoma)
How it was run: as §1

[12] = test system: NKM-1 (Acute Myeloid Leukemia)
How it was run: as §1

[13] = test system: BALL-1 (B-Lymphoblastic Leukemia)
How it was run: as §1

[14] = test system: Calu-6 (Non-Small Cell Lung Carcinoma)
How it was run: as §1

[15] = test system: NCI-H1563 (Lung Adenocarcinoma)
How it was run: as §1

[16] = test system: SJRH30 (Rhabdomyosarcoma)
How it was run: as §1

[17] = test system: RMG-I (Ovarian Carcinoma)
How it was run: as §1

[18] = test system: Becker (Low Grade Glioma)
How it was run: as §1

[19] = test system: RPMI-8866 (Chronic Myelogenous Leukemia)
How it was run: as §1

[20] = test system: SK-MM-2 (Plasma Cell Myeloma)
How it was run: as §1

| Compound | Bliss excess [1] | Bliss excess [2] | Bliss excess [3] | Bliss excess [4] | Bliss excess [5] | Bliss excess [6] | Bliss excess [7] | Bliss excess [8] | Bliss excess [9] | Bliss excess [10] | Bliss excess [11] | Bliss excess [12] | Bliss excess [13] | Bliss excess [14] | Bliss excess [15] | Bliss excess [16] | Bliss excess [17] | Bliss excess [18] | Bliss excess [19] | Bliss excess [20] |
| --- | --- | --- | --- | --- | --- | --- | --- | --- | --- | --- | --- | --- | --- | --- | --- | --- | --- | --- | --- | --- |
| CN(C)CCCOc1ccc(-c2ccc3ncc4c(c3c2)n(C2CCOCC2)c(=O)n4C)cn1 [AZD0156] + C=CCn1c(=O)c2cnc(Nc3ccc(N4CCN(C)CC4)cc3)nc2n1-c1cccc(C(C)(C)O)n1 [AZD1775] (first compound max 1 µM, partner max 1 µM) | -0.0249 | -0.037 | -0.0271 | -0.0531 | -0.03 | -0.076 | -0.0193 | -0.0123 | -0.0501 | -0.0255 | -0.0519 | -0.0605 | 0.0118 | -0.0479 | -0.0549 | -0.0467 | -0.0545 | -0.0409 | -0.0175 | 0.0058 |
| CN(C)CCCOc1ccc(-c2ccc3ncc4c(c3c2)n(C2CCOCC2)c(=O)n4C)cn1 [AZD0156] + CCN(CCO)CCCOc1ccc2c(Nc3cc(CC(=O)Nc4cccc(F)c4)[nH]n3)ncnc2c1 [AZD2811] (first compound max 1 µM, 7x7, partner max 1 µM) | -0.0163 | -0.021 | 0.0352 | 0.0006 | 0.0016 | -0.0583 | -0.004 | -0.0646 | -0.0159 | -0.0337 | 0.0302 | -0.031 | 0.171 | -0.0112 | -0.006 | 0.0035 | -0.072 | -0.0293 | 0.0518 | -0.0131 |
| CN(C)CCCOc1ccc(-c2ccc3ncc4c(c3c2)n(C2CCOCC2)c(=O)n4C)cn1 [AZD0156] + C[C@@H]1COCCN1C2=NC(=NC(=C2)C3(CC3)[S@](=N)(=O)C)C4=C5C=CNC5=NC=C4 [AZD6738] (first compound max 1 µM, 7x7, partner max 10 µM) | -0.0217 | 0.0048 | -0.0095 | 0.0033 | -0.0387 | -0.0526 | 0.0452 | 0.0196 | 0.0102 | 0.0039 | -0.0082 | -0.11 | 0.0274 | -0.0139 | -0.0063 | 0.0408 | -0.0095 | -0.0248 | -0.0014 | -0.0524 |
| CN(C)CCCOc1ccc(-c2ccc3ncc4c(c3c2)n(C2CCOCC2)c(=O)n4C)cn1 [AZD0156] + O=C(c1cc(Cc2n[nH]c(=O)c3ccccc23)ccc1F)N1CCN(C(=O)C2CC2)CC1 [Olaparib] (first compound max 3 µM, partner max 3 µM) | 0.0327 | 0.167 | 0.178 | -0.0054 | 0.11 | -0.0388 | -0.0459 | 0.125 | 0.0084 | -0.0032 | 0.0541 | 0.0587 | 0.158 | 0.0096 | -0.0158 | 0.0963 | -0.0428 | -0.0359 | 0.0607 | -0.161 |
| C=CCn1c(=O)c2cnc(Nc3ccc(N4CCN(C)CC4)cc3)nc2n1-c1cccc(C(C)(C)O)n1 [AZD1775] + C1CN(CCC1(C(=O)N[C@@H](CCO)C2=CC=C(C=C2)Cl)N)C3=NC=NC4=C3C=CN4 [Capivasertib] (first compound max 3 µM, partner max 3 µM) | -0.0209 | 0.0017 | -0.0178 | -0.0193 | 0.0093 | -0.0351 | -0.0117 | 0.0157 | -0.018 | -0.0135 | -0.0404 | -0.0746 | 0.0591 | 0.0034 | -0.0318 | -0.0065 | -0.0349 | -0.0716 | 0.0091 | -0.0629 |
| C=CCn1c(=O)c2cnc(Nc3ccc(N4CCN(C)CC4)cc3)nc2n1-c1cccc(C(C)(C)O)n1 [AZD1775] + C[C@@H]1COCCN1C2=NC(=NC(=C2)C3(CC3)[S@](=N)(=O)C)C4=C5C=CNC5=NC=C4 [AZD6738] (first compound max 1 µM, partner max 10 µM) | 0.0105 | 0.0054 | 0.0296 | 0.0329 | 0.0402 | -0.0662 | -0.0151 | 0.025 | 0.0194 | -0.0308 | 0.0223 | 0.0023 | 0.0441 | – | -0.0303 | 0.0467 | -0.0161 | 0.0428 | 0.0078 | -0.0211 |
| C=CCn1c(=O)c2cnc(Nc3ccc(N4CCN(C)CC4)cc3)nc2n1-c1cccc(C(C)(C)O)n1 [AZD1775] + O=C(c1cc(Cc2n[nH]c(=O)c3ccccc23)ccc1F)N1CCN(C(=O)C2CC2)CC1 [Olaparib] (first compound max 1 µM, partner max 10 µM) | -0.0517 | -0.0086 | 0.0213 | -0.0188 | -0.0372 | -0.0689 | -0.035 | 0.0492 | -0.0244 | -0.0514 | -0.038 | -0.0375 | 0.0054 | -0.0421 | -0.0288 | -0.0057 | -0.0105 | -0.0254 | -0.0528 | -0.0471 |
| CCN(CCO)CCCOc1ccc2c(Nc3cc(CC(=O)Nc4cccc(F)c4)[nH]n3)ncnc2c1 [AZD2811] + C=CCn1c(=O)c2cnc(Nc3ccc(N4CCN(C)CC4)cc3)nc2n1-c1cccc(C(C)(C)O)n1 [AZD1775] (first compound max 1 µM, partner max 1 µM) | -0.0111 | 0.0026 | 0.0392 | -0.0449 | 0.0389 | -0.0454 | 0.0515 | -0.019 | -0.0609 | -0.0353 | -0.0022 | 0.0269 | 0.0612 | -0.0028 | 0.001 | 0.0089 | -0.0711 | -0.0465 | 0.0714 | -0.0005 |
| CCN(CCO)CCCOc1ccc2c(Nc3cc(CC(=O)Nc4cccc(F)c4)[nH]n3)ncnc2c1 [AZD2811] + C[C@@H]1COCCN1C2=NC(=NC(=C2)C3(CC3)[S@](=N)(=O)C)C4=C5C=CNC5=NC=C4 [AZD6738] (first compound max 1 µM, 7x7, partner max 10 µM) | -0.0445 | -0.0175 | 0.0199 | -0.0383 | -0.0873 | -0.073 | -0.0512 | -0.0518 | -0.0574 | -0.0305 | -0.0764 | 0.0425 | 0.0288 | -0.0382 | -0.0114 | -0.0079 | -0.0734 | -0.0343 | -0.0271 | -0.0732 |
| CCN(CCO)CCCOc1ccc2c(Nc3cc(CC(=O)Nc4cccc(F)c4)[nH]n3)ncnc2c1 [AZD2811] + O=C(c1cc(Cc2n[nH]c(=O)c3ccccc23)ccc1F)N1CCN(C(=O)C2CC2)CC1 [Olaparib] (first compound max 1 µM, 7x7, partner max 10 µM) | -0.0182 | 0.0269 | 0.029 | 0.0005 | -0.0101 | -0.0219 | -0.0471 | -0.0463 | 0.0078 | -0.012 | -0.016 | 0.0342 | 0.147 | 0.0004 | -0.0221 | 0.0189 | -0.0141 | -0.0371 | 0.147 | -0.0256 |
| CN(CCO)CC[C@H](CSc1ccccc1)Nc1ccc(S(=O)(=O)NC(=O)c2ccc(N3CCC([C@@H](O)c4ccccc4-c4ccc(Cl)cc4)CC3)cc2)cc1S(=O)(=O)C(F)(F)F [AZD4320] + C1CN(CCC1(C(=O)N[C@@H](CCO)C2=CC=C(C=C2)Cl)N)C3=NC=NC4=C3C=CN4 [Capivasertib] (first compound max 1 µM, 7x7, partner max 3 µM) | -0.0346 | -0.0418 | 0.0023 | -0.0273 | -0.0192 | -0.0619 | -0.0282 | 0.0753 | -0.149 | -0.0381 | -0.0595 | 0.0099 | 0.0012 | 0.0004 | -0.0423 | 0.0085 | -0.0527 | -0.0355 | -0.0553 | -0.0077 |
| COc1nnc2ccc(N3CCC(c4ccc(OCCN5CCN(C)C(=O)[C@H]5C)cc4)CC3)nn12 [AZD5153] + CN(CC[C@H](CSC1=CC=CC=C1)NC2=C(C=C(C=C2)S(=O)(=O)NC(=O)C3=CC=C(C=C3)N4CCC(CC4)[C@H](C5=CC=CC=C5C6=CC=C(C=C6)Cl)O)S(=O)(=O)C(F)(F)F)CCO [AZD4320] (first compound max 1 µM, 7x7, partner max 1 µM) | 0.0277 | – | – | – | 0.0571 | – | -0.0066 | – | 0.0585 | 0.0926 | – | – | -0.0008 | -0.0429 | 0.0003 | 0.0517 | – | – | -0.0318 | – |
| CC(=O)c1c(C)c2cnc(Nc3ccc(N4CCNCC4)cn3)nc2n(C2CCCC2)c1=O [Palbociclib] + CN(CC[C@H](CSC1=CC=CC=C1)NC2=C(C=C(C=C2)S(=O)(=O)NC(=O)C3=CC=C(C=C3)N4CCC(CC4)[C@H](C5=CC=CC=C5C6=CC=C(C=C6)Cl)O)S(=O)(=O)C(F)(F)F)CCO [AZD4320] (first compound max 10 µM, 7x7, partner max 1 µM) | -0.0649 | – | – | – | -0.0566 | – | -0.0742 | – | -0.0291 | -0.0621 | – | – | -0.0446 | 0.0279 | -0.0292 | -0.0467 | – | – | -0.0036 | – |
| CCc1c2c(nc3ccc(O)cc13)-c1cc3c(c(=O)n1C2)COC(=O)[C@]3(O)CC [SN-38] + O=C(c1cc(Cc2n[nH]c(=O)c3ccccc23)ccc1F)N1CCN(C(=O)C2CC2)CC1 [Olaparib] (first compound max 0.3 µM, 7x7, partner max 10 µM) | – | 0.0833 | -0.0065 | 0.0423 | – | -0.0048 | – | 0.0204 | 0.0041 | – | 0.107 | 0.0274 | 0.0629 | 0.0211 | – | 0.0591 | 0.0057 | 0.083 | 0.0155 | -0.0056 |
| C[C@@H](c1ccc2nccn2c1)n1nnc2ncc(-c3cnn(C)c3)nc21 [Savolitinib] + CN(CC[C@H](CSC1=CC=CC=C1)NC2=C(C=C(C=C2)S(=O)(=O)NC(=O)C3=CC=C(C=C3)N4CCC(CC4)[C@H](C5=CC=CC=C5C6=CC=C(C=C6)Cl)O)S(=O)(=O)C(F)(F)F)CCO [AZD4320] (first compound max 1 µM, 7x7, partner max 1 µM) | -0.0383 | – | – | – | -0.0297 | – | -0.0454 | – | -0.0341 | -0.0718 | – | – | -0.0078 | -0.005 | -0.0266 | -0.0203 | – | – | -0.0815 | – |
